Assay results published in US8987263B2, “Basic esters of fatty alcohols and their use as anti-inflammatory or immunomodulatory agents” (priority 2002, dated 2015).
Read-outs that look alike come from different tables or passages of the source.

Key:
[1] = system: delayed-type hypersensitivity (DTH) reaction; assay: Oxazolone-induced DTH skin reaction, mouse ear-swelling test; format: in vivo, BALB/c mice; details: for reduction of inflammation in the DTH model: 0.5, 1, 2 and 4 mg in 40 μl 30 min after challenge, dexamethazone 2 mg/40 μl, FIG. 5; for percent inhibition of DTH reaction: read after 24 hours
Experimental: Delayed-type hypersensitivity (DTH), a localized inflammatory reaction induced by cytokines secreted by certain TH cells when they encounter certain types of antigens, is an established experimental model for skin inflammation.
As a first step, DTH reactions were induced in the skin of 8-week-old female BALB/c mice. The mice were sensitized by topical application of 200 μl of a 2% oxazolone (4-ethoxymethylene-2-phenyl-2-oxazolin-5-one; Sigma, St. Louis, Mo.) solution in acetone/olive oil (4:1, vol/vol) to the shaved abdomen of the mice. Six days after sensitization, one ear of each mouse was challenged by topical application of 20 μl of a 0.5% oxazolone solution.
Mice were induced with DTH as in Example 17. […] In addition, a positive control of dexamethazone (2 mg/40 μl) was administered. A group of DTH induced mice was also treated with (4-Methyl-piperazin-1-yl)-acetic acid ethyl ester HCl (negative control.)

[2] = system: Spleen Cells of GA Immumized Mice; assay: IL-2 secretion from spleen cells of immunized mice (ELISA); format: cell-based, C57BL/J6 mice; set-up: IL-2 Secretion from 5 × 10^6 Spleen Cells: unit not given here
Experimental: (§1) EAE was tested in CSJL/F1 mice, immunological response was tested in C57BL/J6 mice. Healthy, specific pathogen-free, female CSJLF/1 and male C57BL/J6 mice, were obtained from Harlan Animal Breeding Center, Jerusalem, Israel. The mice were 9-week old at the initiation of the study, weighing 20 g±15%.
(i) The mice were divided into 6 test groups as shown below:
Mice were immunized 10 days prior to spleen collection.
A solution of GA in PBS (final GA concentration of 1.5 mg/mL, for dose of 75 μg/mouse) was diluted in CFA to yield a final concentration of 0.75 mg/mL for dose of 75 μg/mouse GA. The mixtures (GA+CFA) were transferred into a syringe (2.5 mL) connected to a second syringe through a Luer lock bridge and mixed well by transferring the material from one syringe to another for about 10 minutes until the material is well emulsified.
GA (20 mg vial) was dissolved in PBS to yield 20 mg/mL solution, then further diluted in PBS to yield a final GA concentration of 1.5 mg/mL for dose of 75 μg/mouse. Equal volumes of Compound 3 and GA or PBS for control group were mixed.
Spleens were collected and pooled for each group in sterile RPMI medium. Cells were extracted resuspended in enriched DCCM1 medium and counted. […] Supernatants were collected and tested for levels of cytokines secretion.
(vii) Detection of cytokine secretion in primary cultures from spleens was performed employing ELISA. Cells were activated in-vitro and IL-2 secretion levels were detected using commercial kits according to the provider's instructions.

adjuvant arthritis (AA) = details: Lewis rats
[3] = system: experimental autoimmune encephalomyelitis (EAE); details: DA rats; 40 mg IV on day of immunization; vs untreated control; FIG. 2
EAE [4] = details: Lewis rats
Experimental: EAE is induced in 7-9 weeks old female Lewis rats by injecting each foot pad with 25 μg of guinea MBP (50 μg total) in CFA (Sigma). The disease develops about 12 days after immunization and is characterized by paralysis of various degrees due to inflammation of the central nervous system. The rats are scored for paralysis on a scale of 0-4, as described above in Example 13.
EAE was induced in 8-week-old female Lewis rats as described in Example 15 above with guinea pig MBP in CFA.
(§2) The rats were scored for EAE on a severity scale of 0-4 as described above.
as §2
Rats were treated with Compound 9 (100 mg/Kg) per os. The rats were scored for EAE on a severity scale of 0-4 as described above.

EAE [5] = format: in vivo; details: CSJL/F1 mice, GA 5.0 mg/mouse, Compound 3 0.5 mg/mouse
Experimental: as §1
(i) The mice were divided into 4 test groups as shown below:
For immunization of group 1, a GA solution in PBS (100 mg/mL) was diluted 1:2 in IFA to yield a final concentration of 50 mg/mL for injection of 5.0 mg/mouse GA (0.1 ml). The GA+IFA mixtures were transferred into a syringe (2.5 mL) connected to a second syringe through a Luer lock bridge and mixed well by transferring the material from one syringe to another for about 10 minutes until the material was well emulsified.
EAE was induced by injecting the encephalitogenic agent consisting of MSCH and commercial CFA containing Mycobacterium tuberculosis H37Ra to the foot-pads of the animals and pertussis toxin IV.
They were weighed before immunization and once a week thereafter until the termination of the study. Ten days after induction of EAE, the mice were examined for EAE clinical signs and scored. The EAE clinical signs were observed and scored from the 9th day post-EAE induction until the termination of the experiment according to the following five-graded scale to assess clinical severity: 0, normal behavior; 1, weight loss; 2, tail weakness; 3, hind legs hypotonia and weakness; 4, hind legs paralysis; 4, severe total paralysis; 5, impaired respiration and/or convulsions and/or full paralysis or death.
Calculation of mortality: The number of sick and dead animals in each group was determined, and the incidence of disease and mortality rate was calculated as follows: […]
Calculation of percent activity: The percentage activity according to mortality was calculated as follows: […]
Calculation of mean duration of disease and onset of disease: The mean duration of the disease and onset of disease expressed in days was calculated.
Calculation of the mean maximal score and percent inhibition: The maximal scores of each of the 10 mice in the test group were summed.
The mean maximal score (MMS) of the group was calculated as follows: […]
The percent inhibition was calculated as follows: […]
Calculation of the mean group score and percent inhibition: The scores of each of the 10 mice in the test group was summed.
The mean group score (GMS) of the group was calculated as follows: […]

[6] = format: in vivo
Experimental: The mice were scored according to following chart: 0—normal behavior; 1—slight toxic signs (piloerection); 2—moderate toxic signs (partial eye lid closure, hunched posture, hypoactivity, apathy); 3—severe toxic signs (ataxia, convulsions, gasping respiration, paralysis, unconscious); 4—death. Mice were weighed before immunization and on the day of the termination of the study. […] The spleens were weighed and spleen/body weight ratio was calculated.

[7] = 0.2 mg per os every day from EAE induction
[8] = 1 mg per os every day from EAE induction
[9] = 2 mg per os every day from EAE induction
[10] = 10 mg per os every day from EAE induction
[11] = 20 mg per os every day from EAE induction

CCCCCCCC/C=C\CCCCCCCCOC(=O)C(N)c1ccccc1.Cl (stereo not drawn) [Compound 11, α-Amino-α-phenyl-acetic acid octadec-(Z)-9-enyl ester HCl salt]
reduction of inflammation in the DTH model [1]: inhibit DTH Skin Reaction

glatiramer acetate [GA, reference compound]
IL-2 Secretion from 5 × 10^6 Spleen Cells ([2]; GA activator conc. 2.5 (mg/mL), mice immunized with GA 75 μg/m, no Comp. 3): 47.9
IL-2 Secretion from 5 × 10^6 Spleen Cells ([2]; GA activator conc. 25.0 (mg/mL), mice immunized with GA 75 μg/m, no Comp. 3): 124.3
IL-2 Secretion from 5 × 10^6 Spleen Cells ([2]; activator Con A 2.5 (mg/mL), mice immunized with GA 75 μg/m, no Comp. 3): 419.6
IL-2 Secretion from 5 × 10^6 Spleen Cells ([2]; activator conc. 0, mice immunized with GA 75 μg/m, no Comp. 3): UQL

CCCCCCCC/C=C\CCCCCCCCOC(=O)c1ccc(CN(C)C)cc1.Cl [Compound 5, 4-dimethylaminomethyl-benzoic acid octadec-(Z)-9-enyl ester HCl]
reduction of inflammation in the DTH model [1]: inhibit DTH Skin Reaction

CCCCCCCC/C=C\CCCCCCCCOC(=O)CN(C)C [Compound 1, N,N-Dimethylamino-acetic acid octadec-(Z)-9-enyl ester]
protection against the inflammation caused by AA (AA score 0-16) (adjuvant arthritis (AA); 40 mg IV on day 0 or on day 14 after onset of AA, FIG. 1): could protect the rats against the inflammation caused by AA
prevention of paralysis (EAE score 0-4) [3]: could prevent the paralysis to a significant degree

CCCCCCCC/C=C\CCCCCCCCOC(=O)CN1CCN(C)CC1.O=C(O)C(O)C(O)C(=O)O [Compound 3, (4-Methyl-piperazin-1-yl)-acetic acid octadec-(Z)-9-enyl ester tartrate]
percent inhibition of DTH reaction ([1]; 1 mg topical on challenged ear 30 min after challenge): 12.5%
percent inhibition of DTH reaction ([1]; 2 mg topical on challenged ear 30 min after challenge): 8%
% inhibition (EAE [4]; [7]): 28%
Mean Clinic Score (EAE [4]; [7]): 2.1
% inhibition (EAE [4]; [8]): 28%
Mean Clinic Score (EAE [4]; [8]): 2.1
% inhibition (EAE [4]; [9]): 14%
Mean Clinic Score (EAE [4]; [9]): 2.5
% inhibition (EAE [4]; [10]): 28%
Mean Clinic Score (EAE [4]; [10]): 2.1
% inhibition (EAE [4]; [11]): 41%
Mean Clinic Score (EAE [4]; [11]): 1.7
protection against EAE (EAE [4]; administered subcutaneously (10-200 mg, day 7 before induction) or orally): could protect the rats against EAE
effect on EAE (EAE [4]; per os every other day from day of EAE induction (not shown)): similarly effective
GMS (group mean score) Value ± S.D. (EAE [5]): 3.3 ± 0.6
MMS (mean maximal score) Value ± S.D. (EAE [5]): 4.7 ± 0.5
Mean Duration (EAE [5]): 4.7 ± 0.5 days
Mean onset (EAE [5]; SC immunization 11 days before EAE induction): 10.3 ± 0.5 days
GMS inhibition (inh.* 3) (EAE [5]; vs PBS control): 3.2%
MMS inhibition (inh.* 2) (EAE [5]; vs PBS control): .0%
effect on non-specific Con-A activation (IL-2) ([2]; Con A as non-specific activator): no effect
IL-2 Secretion from 5 × 10^6 Spleen Cells ([2]; GA activator conc. 2.5 (mg/mL), Comp. 3 50 μg/m (GA 75 μg/m where combined)): UQL
IL-2 Secretion from 5 × 10^6 Spleen Cells ([2]; GA activator conc. 2.5 (mg/mL), Comp. 3 500 μg/m (GA 75 μg/m where combined)): UQL
IL-2 Secretion from 5 × 10^6 Spleen Cells ([2]; GA activator conc. 25.0 (mg/mL), Comp. 3 50 μg/m (GA 75 μg/m where combined)): UQL
IL-2 Secretion from 5 × 10^6 Spleen Cells ([2]; GA activator conc. 25.0 (mg/mL), Comp. 3 500 μg/m (GA 75 μg/m where combined)): 7.9
IL-2 Secretion from 5 × 10^6 Spleen Cells ([2]; activator Con A 2.5 (mg/mL), Comp. 3 50 μg/m (GA 75 μg/m where combined)): 426.8
IL-2 Secretion from 5 × 10^6 Spleen Cells ([2]; activator Con A 2.5 (mg/mL), Comp. 3 500 μg/m (GA 75 μg/m where combined)): 426.8
IL-2 Secretion from 5 × 10^6 Spleen Cells ([2]; activator conc. 0, Comp. 3 50 μg/m (GA 75 μg/m where combined)): UQL
IL-2 Secretion from 5 × 10^6 Spleen Cells ([2]; activator conc. 0, Comp. 3 500 μg/m (GA 75 μg/m where combined)): UQL
IL-2 secretion from spleen cells in response to GA ([2]; immunized with Compound 3 without GA, 50 and 500 μg/mouse): not elevated
effect on mice weight ([6]; Compound 3 50 and 500 μg/mouse, with or without GA 75 μg/mouse): no adverse effect
signs of immunosuppression ([6]; Compound 3 with or without GA): no signs of immunosuppression
protection against AA (adjuvant arthritis (AA); 10, 50, 100 or 200 mg SC at day -7 before induction, FIG. 6): could protect the rats against AA

CCOC(=O)CN1CCN(C)CC1.Cl [negative control, (4-Methyl-piperazin-1-yl)-acetic acid ethyl ester HCl, reference compound]
reduction of inflammation in the DTH model [1]: did not show any positive results

C[C@@H]1C[C@H]2[C@@H]3CCC4=CC(=O)C=C[C@]4(C)[C@@]3(F)[C@@H](O)C[C@]2(C)[C@@]1(O)C(=O)CO [dexamethazone, reference compound]
reduction of inflammation in the DTH model [1]: positive results in reducing inflammation

CCCCCCCC/C=C\CCCCCCCCOC(=O)CN1CCNCC1.O=C(O)C(O)C(O)C(=O)O [Compound 9, Piperazin-1-yl-acetic acid octadec-(Z)-9-enyl ester bitartrate]
reduction of inflammation in the DTH model [1]: inhibit DTH Skin Reaction
protection against EAE (EAE [4]; 100 mg/Kg administered orally, FIG. 9): could protect the rats against EAE
% Sick rats (EAE [4]; 100 Mg/Kg per os): 100%
% inhibition (EAE [4]; 100 Mg/Kg per os): 31.4%
Mean Clinic Score (EAE [4]; 100 Mg/Kg per os): 1.93 ± 0.45
Mean onset (EAE [4]; 100 Mg/Kg per os): 11.5
